Results from patent publication US11214594B2, “Antimicrobial peptide having synergistic antibacterial effect with antibiotics on multidrug resistant bacteria, and use thereof” (priority 2016, dated 2022).
In brackets after ≈: the same amount, converted by molar mass. Where a SMILES comes first, the peptide text is derived from it.

Legend:
A. baumannii = assay: MIC of antimicrobial peptide during combined treatment with antibiotic; assay type: cell-based, Acinetobacter baumannii
Outline: (§1)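 Antibiotic MIC came from antibiotic dilutions added to bacteria (2×10^6 CFU/ml, MH medium) already combined with peptide serially diluted 2:1 from its own MIC. Swapping the roles of the two agents gave the peptide MIC.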

MDRAB 12035 = assay: as above; assay type: cell-based, Acinetobacter baumannii
Outline: as §1

B. subtilis = assay: microbe, parasite or virus in culture; assay type: cell-based, Bacillus subtilis
Outline: (§2)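 Each strain is brought to 2×10^6 CFU in nutrient-sufficient Mueller-Hinton medium and dispensed into wells. Peptide solutions, stepwise diluted 2:1 in the same medium, are then added. The minimal concentration preventing growth gives the MIC.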

MDREC 1229 = assay: microbe, parasite or virus in culture; assay type: cell-based, Escherichia coli
Outline: as §2

E. coli [1] = assay: microbe, parasite or virus in culture; assay type: cell-based, Escherichia coli
Outline: as §2

P. aeruginosa = assay: microbe, parasite or virus in culture; assay type: cell-based, Pseudomonas aeruginosa
Outline: as §2

E. coli [2] = assay: MIC of antibiotic during combined treatment with antimicrobial peptide; assay type: cell-based, Escherichia coli; conditions: for Antibiotic MIC, Erythromycin / Antibiotic MIC, Linezolid / Antibiotic MIC, Vancomycin: E. coli
Outline: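 Antibiotic diluted in MH medium, dispensed per well with peptide; setup repeated with roles reversed; MIC read per combination.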

[3] = vancomycin 512 μg/ml (Conc./MIC 1/2)
[4] = vancomycin 1024 μg/ml (Conc./MIC 1)

CC[C@H](C)[C@H](NC(=O)[C@H](CCCCN)NC(=O)[C@H](Cc1c[nH]c2ccccc12)NC(=O)[C@@H](N)CCCNC(=N)N)C(=O)N[C@@H](Cc1ccccc1)C(=O)N[C@@H](CCCCN)C(=O)N[C@@H](CCCCN)C(=O)N[C@H](C(=O)N1CCC[C@H]1C(=O)N[C@@H](CCCCN)C(=O)N[C@@H](CC(C)C)C(=O)N[C@@H](CC(C)C)C(=O)N[C@@H](Cc1c[nH]cn1)C(=O)N[C@@H](CO)C(=O)N[C@@H](Cc1ccccc1)C(=O)N[C@@H](CCCCN)C(=O)N[C@@H](CCCCN)C(=O)N[C@@H](Cc1ccccc1)C(N)=O)[C@@H](C)CC [PapMA-7, RWK IFK KIP KLL HSF KKF-NH2] (H-RWKIFKKIPKLLHSFKKF-NH2; N-terminus assumed)
Peptide MIC during treatment with antibiotic (A. baumannii; [3]): 0.25 µg/mL | Peptide MIC during treatment with antibiotic (A. baumannii; [4]): 0 µg/mL | Peptide MIC during treatment with antibiotic (A. baumannii; vancomycin […] (Conc./MIC 1/4)): 0.25 µg/mL | Peptide MIC during treatment with antibiotic (A. baumannii; vancomycin […] (Conc./MIC 1/8)): 2 µg/mL | Peptide MIC during treatment with erythromycin (MDRAB 12035; erythromycin 4 μg/ml (Conc./MIC 1/8)): 2 µg/mL | Peptide MIC during treatment with erythromycin (MDRAB 12035; erythromycin 8 μg/ml (Conc./MIC 1/4)): 1 µg/mL | Peptide MIC during treatment with erythromycin (MDRAB 12035; erythromycin 16 μg/ml (Conc./MIC 1/2)): 1 µg/mL | Peptide MIC during treatment with erythromycin (MDRAB 12035; erythromycin 32 μg/ml (Conc./MIC 1)): 0 µg/mL | Peptide MIC during treatment with linezolid (MDRAB 12035; linezolid 64 μg/ml (Conc./MIC 1/8)): 1 µg/mL | Peptide MIC during treatment with linezolid (MDRAB 12035; linezolid 512 μg/ml (Conc./MIC 1)): 0 µg/mL | Peptide MIC during treatment with linezolid (MDRAB 12035; linezolid […] (Conc./MIC 1/2)): 1 µg/mL | Peptide MIC during treatment with linezolid (MDRAB 12035; linezolid […] (Conc./MIC 1/4)): 1 µg/mL | Peptide MIC during treatment with vancomycin (MDRAB 12035; [3]): 0.5 µg/mL | Peptide MIC during treatment with vancomycin (MDRAB 12035; [4]): 0.25 µg/mL | Peptide MIC during treatment with vancomycin (MDRAB 12035; vancomycin […] (Conc./MIC 1/4)): 1 µg/mL | Peptide MIC during treatment with vancomycin (MDRAB 12035; vancomycin […] (Conc./MIC 1/8)): 1 µg/mL | Minimal inhibitory concentration MIC (B. subtilis): >128 µg/mL | Minimal inhibitory concentration MIC (MDREC 1229): 64 µg/mL (≈ 27.3 µM) | Minimal inhibitory concentration MIC (E. coli [1]; 16 h): 32 µg/mL (≈ 13.7 µM) | Antibacterial activity relative to PapMA-1 (E. coli [1]; E. coli): at least twice as high | Minimal inhibitory concentration MIC (P. aeruginosa): 16 µg/mL (≈ 6.83 µM) | Antibacterial activity (in words) (P. aeruginosa; P. aeruginosa and S. typhimurium): significantly increased | Synergistic effect of antibacterial activity with existing antibiotics compared with PapMA-1 (E. coli [2]; E. coli and MDREC1229): higher level than the PapMA-1 peptide | Antibiotic MIC, Erythromycin (E. coli [2]; erythromycin combined with peptide at 1 μg/ml): 64 µg/mL | Antibiotic MIC, Erythromycin (E. coli [2]; erythromycin combined with peptide at 2 μg/ml): 32 µg/mL | Antibiotic MIC, Erythromycin (E. coli [2]; erythromycin combined with peptide at 4 μg/ml): 4 µg/mL | Antibiotic MIC, Erythromycin (E. coli [2]; erythromycin combined with peptide at 6 μg/ml): 2 µg/mL | Antibiotic MIC, Erythromycin (E. coli [2]; erythromycin combined with peptide at 8 μg/ml): 0.25 µg/mL | Antibiotic MIC, Erythromycin (E. coli [2]; erythromycin combined with peptide at 16 μg/ml): 0.125 µg/mL | Antibiotic MIC, Erythromycin (E. coli [2]; erythromycin combined with peptide at 32 μg/ml): 0 µg/mL | Antibiotic MIC, Erythromycin (E. coli [2]; erythromycin combined with peptide at 64 μg/ml): 0 µg/mL | Antibiotic MIC, Linezolid (E. coli [2]; linezolid combined with peptide at 1 μg/ml): >128 µg/mL | Antibiotic MIC, Linezolid (E. coli [2]; linezolid combined with peptide at 2 μg/ml): 128 µg/mL | Antibiotic MIC, Linezolid (E. coli [2]; linezolid combined with peptide at 4 μg/ml): 8 µg/mL | Antibiotic MIC, Linezolid (E. coli [2]; linezolid combined with peptide at 6 μg/ml): 4 µg/mL | Antibiotic MIC, Linezolid (E. coli [2]; linezolid combined with peptide at 8 μg/ml): 4 µg/mL | Antibiotic MIC, Linezolid (E. coli [2]; linezolid combined with peptide at 16 μg/ml): 1 µg/mL | Antibiotic MIC, Linezolid (E. coli [2]; linezolid combined with peptide at 32 μg/ml): 0 µg/mL | Antibiotic MIC, Linezolid (E. coli [2]; linezolid combined with peptide at 64 μg/ml): 0 µg/mL | Antibiotic MIC, Vancomycin (E. coli [2]; vancomycin combined with peptide at 1 μg/ml): >128 µg/mL | Antibiotic MIC, Vancomycin (E. coli [2]; vancomycin combined with peptide at 2 μg/ml): 128 µg/mL | Antibiotic MIC, Vancomycin (E. coli [2]; vancomycin combined with peptide at 4 μg/ml): 32 µg/mL | Antibiotic MIC, Vancomycin (E. coli [2]; vancomycin combined with peptide at 6 μg/ml): 8 µg/mL | Antibiotic MIC, Vancomycin (E. coli [2]; vancomycin combined with peptide at 8 μg/ml): 4 µg/mL | Antibiotic MIC, Vancomycin (E. coli [2]; vancomycin combined with peptide at 16 μg/ml): 1 µg/mL | Antibiotic MIC, Vancomycin (E. coli [2]; vancomycin combined with peptide at 32 μg/ml): 0 µg/mL | Antibiotic MIC, Vancomycin (E. coli [2]; vancomycin combined with peptide at 64 μg/ml): 0 µg/mL
